{"source": "patent US8916555B2", "about": "“3,5-diaminopyrazole kinase inhibitors” (Axikin Pharmaceuticals, Inc., priority 2012, dated 2014)", "key": {"[1]": {"biological_target": "T1, kinase domain protein of RC kinase (Homo sapiens, UniProt Q56UN5)", "T1 sequence (Q56UN5 1061-1324 limits assumed)": "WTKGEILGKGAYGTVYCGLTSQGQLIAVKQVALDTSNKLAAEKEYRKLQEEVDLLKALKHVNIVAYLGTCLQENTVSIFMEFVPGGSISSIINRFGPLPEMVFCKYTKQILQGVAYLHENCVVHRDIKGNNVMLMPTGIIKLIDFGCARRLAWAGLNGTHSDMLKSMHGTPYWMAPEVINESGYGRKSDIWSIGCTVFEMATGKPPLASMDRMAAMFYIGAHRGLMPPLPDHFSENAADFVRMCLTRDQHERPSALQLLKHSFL", "test": "Enzymatic assay for kinase inhibitory activity (Crebtide substrate, LANCE readout), kinase domain protein", "assay_type": "biochemical", "conditions": "test compound 1 μM, ATP 1 μM, Crebtide 50 nM", "experimental": "Solutions of a test compound, Crebtide (a substrate), a kinase, and ATP were prepared using 1×MAPK Buffer (50 mM HEPES, 1 mM EGTA, […], 10 mM MgCl2, 2 mM DTT, and 0.01% Tween 20).\nTo each well, the test compound (1 μL) was first added (in duplicate) to reach a final concentration of 1 μM or 1×IC50 of the compound. The kinase (5 μL) was then added to each well to reach a final concentration of […] for the kinase domain or […] for the full-length domain. Each plate included a positive and negative controls in duplicate wells. Crebtide (2.5 μL) was then added to each well in duplicate to reach a final concentration of 50 nM. If the full-length kinase was used, the plates were incubated for 45 min at room temperature before proceeding further. ATP (2.5 μL) was added to each well to reach a final concentration of 1 μM for the kinase domain and 3 μM for the full-length.\nAfter the addition of ATP, the plates were incubated for 45 min at room temperature. During the incubation, an EDTA solution (40 mM) and anti-Crebtide ([…]) were prepared. Additionally, a detection buffer stock solution was diluted ten fold before use.\nAfter the incubation, the anti-Crebtide (5 μL) and EDTA (5 μL) were added to each well to reach their final concentrations of […] and 10 mM, respectively. The plates were allowed to develop at room temperature for 45 min. The plates were then read at 665 nm and 615 nm using Perkin Elmer Lance machine.\nThe biological results of inhibition of the kinase domain protein of RC kinase are summarized in Tables 2 and 3, wherein A represents at least 50% inhibition of the RC kinase activity at 1 μM; B represents no greater than 50% but at least 20% inhibition of the RC kinase activity at 1 μM; C represents no greater than 20% but at least 5% inhibition of the RC kinase activity at 1 μM; and D represents no greater than 5% inhibition of the RC kinase activity at 1 μM."}}}
{"smiles": "NC(=O)c1c(Nc2ccc(Br)c(Cl)c2)n[nH]c1NCc1ccc(O)cc1", "note": "[Compound D160, 3-((4-bromo-3-chlorophenyl)amino)-5-((4-hydroxybenzyl)amino)-1H-pyrazole-4-carboxamide]", "values": [{"measurement": "inhibition at 1 µM", "setting": "[1]", "result": "20 to 50", "unit": "%"}, {"measurement": "melting point", "result": "199 to 204", "unit": "°C"}]}
{"smiles": "CS(=O)(=O)c1ccc(CNc2n[nH]c(NCc3ccc(O)cc3)c2C(N)=O)cc1", "note": "[Compound D113, 5-((4-hydroxybenzyl)amino)-3-((4-(methylsulfonyl)benzyl)amino)-1H-pyrazole-4-carboxamide]", "values": [{"measurement": "inhibition at 1 µM", "setting": "[1]", "result": "5 to 20", "unit": "%"}, {"measurement": "melting point", "result": "263 to 267", "unit": "°C"}]}
{"smiles": "CC(C)N1CCN(c2ccc(Nc3n[nH]c(NCc4ccc(O)cc4)c3C(N)=O)cc2)CC1", "note": "[Compound D82, 5-((4-hydroxybenzyl)amino)-3-((4-(4-isopropylpiperazin-1-yl)phenyl)amino)-1H-pyrazole-4-carboxamide]", "values": [{"measurement": "inhibition at 1 µM", "setting": "[1]", "result": "≥ 50", "unit": "%"}, {"measurement": "melting point", "result": "210 to 220", "unit": "°C"}]}
{"smiles": "CC1CCN(C2CCN(c3ccc(Nc4n[nH]c(NCc5ccc(O)cc5)c4C(N)=O)cc3)CC2)CC1", "note": "[Compound D102, 5-((4-hydroxybenzyl)amino)-3-((4-(4-methyl-[1,4′-bipiperidin]-1′-yl)phenyl)amino)-1H-pyrazole-4-carboxamide]", "values": [{"measurement": "inhibition at 1 µM", "setting": "[1]", "result": "≥ 50", "unit": "%"}, {"measurement": "melting point", "result": "220 to 224", "unit": "°C"}]}
{"smiles": "NC(=O)c1c(Nc2ccc(C(=O)O)cc2)n[nH]c1NCc1ccc(O)cc1", "note": "[Compound D165, 4-((4-carbamoyl-5-((4-hydroxybenzyl)amino)-1H-pyrazol-3-yl)amino)benzoic acid]", "values": [{"measurement": "inhibition at 1 µM", "setting": "[1]", "result": "≥ 50", "unit": "%"}, {"measurement": "melting point", "result": "285 to 290", "unit": "°C"}]}
{"smiles": "NC(=O)c1c(Nc2ccc(NC(=O)c3cccc(F)c3)cc2)n[nH]c1NCc1ccc(O)cc1", "note": "[Compound D131]", "values": [{"measurement": "inhibition at 1 µM", "setting": "[1]", "result": "≥ 50", "unit": "%"}, {"measurement": "melting point", "result": "216 to 220", "unit": "°C"}]}
{"smiles": "N#Cc1c(Nc2cccc(Cl)c2)n[nH]c1NCc1ccc(Cl)cc1O", "note": "[Compound C24]", "values": [{"measurement": "inhibition at 1 µM", "setting": "[1]", "result": "5 to 20", "unit": "%"}, {"measurement": "melting point", "result": "172 to 180", "unit": "°C"}]}
{"smiles": "CCc1cccc(Nc2n[nH]c(NCc3ccc(O)cc3)c2C(N)=O)c1", "note": "[Compound D68, 3-((3-ethylphenyl)amino)-5-((4-hydroxybenzyl)amino)-1H-pyrazole-4-carboxamide]", "values": [{"measurement": "inhibition at 1 µM", "setting": "[1]", "result": "≥ 50", "unit": "%"}, {"measurement": "melting point", "result": "208 to 212", "unit": "°C"}]}
{"smiles": "COc1ccc(Nc2n[nH]c(NCc3ccc(O)cc3)c2C(N)=O)cc1", "note": "[Compound D162, 5-((4-hydroxybenzyl)amino)-3-((4-methoxyphenyl)amino)-1H-pyrazole-4-carboxamide]", "values": [{"measurement": "inhibition at 1 µM", "setting": "[1]", "result": "≥ 50", "unit": "%"}, {"measurement": "melting point", "result": "176 to 180", "unit": "°C"}]}
{"smiles": "NC(=O)c1c(Nc2cccnc2)n[nH]c1NCc1ccc(O)cc1", "note": "[Compound D150, 5-((4-hydroxybenzyl)amino)-3-(pyridin-3-ylamino)-1H-pyrazole-4-carboxamide]", "values": [{"measurement": "inhibition at 1 µM", "setting": "[1]", "result": "≥ 50", "unit": "%"}, {"measurement": "melting point", "result": "229 to 233", "unit": "°C"}]}
{"smiles": "CN(C)c1ccc(Nc2n[nH]c(NCc3ccc(O)cc3)c2C(N)=O)cc1", "note": "[Compound D126, 3-((4-(dimethylamino)phenyl)amino)-5-((4-hydroxybenzyl)amino)-1H-pyrazole-4-carboxamide]", "values": [{"measurement": "inhibition at 1 µM", "setting": "[1]", "result": "≥ 50", "unit": "%"}, {"measurement": "melting point", "result": "184 to 188", "unit": "°C"}]}
{"smiles": "NC(=O)c1c(Nc2ccc(Cl)nc2)n[nH]c1NCc1ccc(O)cc1", "note": "[Compound D90, 3-((6-chloropyridin-3-yl)amino)-5-((4-hydroxybenzyl)amino)-1H-pyrazole-4-carboxamide]", "values": [{"measurement": "inhibition at 1 µM", "setting": "[1]", "result": "≥ 50", "unit": "%"}, {"measurement": "melting point", "result": "221 to 225", "unit": "°C"}]}
{"smiles": "N#Cc1c(Nc2cccc(Cl)c2)n[nH]c1NCc1ccc(OCCO)cc1", "note": "[Compound C21, 3-((3-chlorophenyl)amino)-5-((4-(2-hydroxyethoxy)benzyl)amino)-1H-pyrazole-4-carbonitrile]", "values": [{"measurement": "inhibition at 1 µM", "setting": "[1]", "result": "5 to 20", "unit": "%"}]}
{"smiles": "N#Cc1c(Nc2cccc(Cl)c2)n[nH]c1NCc1ccc(N2CCOCC2)nc1", "note": "[Compound C15]", "values": [{"measurement": "inhibition at 1 µM", "setting": "[1]", "result": "≤ 5", "unit": "%"}]}
{"smiles": "NC(=O)c1c(Nc2ccc(NC(=O)c3cccc(Cl)c3)cc2)n[nH]c1NCc1ccc(O)cc1", "note": "[Compound D130]", "values": [{"measurement": "inhibition at 1 µM", "setting": "[1]", "result": "≥ 50", "unit": "%"}]}
{"smiles": "COc1ccc(CNc2[nH]nc(Nc3cccc(Cl)c3)c2C#N)c(C)c1C", "note": "[Compound C22]", "values": [{"measurement": "inhibition at 1 µM", "setting": "[1]", "result": "≤ 5", "unit": "%"}]}
